Patent US10351706B2, “Near-infrared fluorescent dyes and uses thereof” (East China University of Science and Technology, priority 2015, dated 2019)

Experiments:
[1] = UV-visible absorption spectral test (Shimadzu UV2600 UV-visible spectrometer); assay type: physicochemical; settings: different dyes in chloroform solution
Text: (§1) The following data are the spectral test data of compound 3d in different solvents (UV-visible data are taken from Shimadzu UV2600 UV-visible spectrometer and fluorescence data are taken from PTI QM4 fluorescence spectrometer):
(§2) The following data are the spectral test data of different dyes in chloroform solution: […]

[2] = Fluorescence spectral test (PTI QM4 fluorescence spectrometer); assay type: physicochemical; settings: different dyes in chloroform solution
Text: as §1, §2

| Structure (SMILES) | Extinction coefficient [1] [cm^−1M^−1] | Maximum absorption wavelength [1] [nm] | Maximum emission wavelength [2] [nm] |
| --- | --- | --- | --- |
| CCN(CC)c1ccc2cc3c(cc2c1)C1(c2ccccc2Oc2ccccc21)c1cc2c(cc1=C3c1ccccc1C)C=CC(=[N+](CC)CC)C=2 [Compound 1a] | 217000 | 836 | 864 |
| Cc1ccccc1C1=c2cc3c(cc2C2(c4ccccc4Oc4ccccc42)c2cc4cc(O)ccc4cc21)=CC(=O)C=C3 [Compound 4b] | 131000 | 779 | 804 |
